Data published in ChEMBL document CHEMBL4049445.
Calls of active or inactive are those of the source. The calls are words filed in the database; no cut-off is given here.

What follows are compounds tested on Influenza A virus (assay: Antiviral activity against Influenza A virus A/PR/8/34 expressing amantadine-resistant M2 proton channel S31N mutant infected in MDCK cells). Details: A/Puerto Rico/8/1934(H1N1).
Assay type: functional, cell-based

`CCN1CCC(C2C3CC4CC(C3)CC2C4)CC1` (configuration not stated) was tested. Which Activity did it give?
Its Activity is “inactive”.

Which Activity does the source give for `N=C(N)N1CCC(C23CC4CC(CC(C4)C2)C3)CC1` here?
The Activity was “inactive”.

How did the Activity turn out when `CN1CCC(CC2C3CC4CC(C3)CC2C4)CC1` (configuration not stated) was run?
The Activity was “inactive”.

`C1CC(C2C3CC4CC(C3)CC2C4)CCN1` (configuration not stated) was tested. Which Activity did it give?
The Activity was “inactive”.

`C1CC(CC2C3CC4CC(C3)CC2C4)CCN1` (configuration not stated) was tested. Which Activity did it give?
Its Activity is “inactive”.

How did the Activity turn out when `OC1(C2CCNCC2)C2CC3CC(C2)CC1C3` (configuration not stated) was run?
Its Activity is “inactive”.

How did the Activity turn out when `OC1(CC2CCNCC2)C2CC3CC(C2)CC1C3` (configuration not stated) was run?
The Activity was “inactive”.

Which Activity does the source give for `N=C(N)N1CCC(C=C2C3CC4CC(C3)CC2C4)CC1` here?
The Activity was “inactive”.

How did the Activity turn out when `C1CC(C23CC4CC(CC(C4)C2)C3)CCN1` was run?
Its Activity is “inactive”.

For `C(=C1C2CC3CC(C2)CC1C3)C1CCNCC1`, which Activity is on record?
Its Activity is “inactive”.

With `C1CCC(C23CC4CC(CC(C4)C2)C3)NC1` (configuration not stated) as the compound, how does the Activity read?
Its Activity is “inactive”.

Which Activity does the source give for `N=C(N)N1CCC(CC2C3CC4CC(C3)CC2C4)CC1` (configuration not stated) here?
Its Activity is “inactive”.
